Results: US12240811B2, “N-heterocyclic five-membered ring-containing capsid protein assembly inhibitor, pharmaceutical composition and uses thereof” (CHIA TAI TIANQING PHARMACEUTICAL GROUP CO., LTD., priority 2019, dated 2025)

Assays:
Format in all cases: in vitro ADME
CYP 2D6 = CYP 2D6 (Homo sapiens (Human), UniProt P10635); test: CYP450 enzyme inhibition study, CYP 2D6
Method: (§1) 500 μL of a final incubation system contains 50 μL of human liver microsomes (protein concentration: 0.2 mg/mL, Corning), 1 μL of mixed CYP450 specific substrates (CYP1A2, CYP 2B6, CYP 2C9, CYP2C19, CYP 2D6, and CYP 3A4), 398 μL PBS buffer (pH7.4), 1 μL specific positive inhibitor (positive control group) or the test compound (formulated with acetonitrile), and 50 μL NADPH+MgCl2. Duplicate incubation systems of 0.5 mL each were formulated for each CYP450 subtype. A total volume of 450 μL of a uniformly mixed solution of the substrate and the enzyme was formulated in each tube, and the solution and NADPH were pre-incubated at 37° C. for 5 minutes, respectively. Then 50 μL of the mixed solution of NADPH+MgCl2 was added for reaction. 50 μL of the reaction solution was taken out at 30 minutes, and the reaction was terminated with 300 μL of ice acetonitrile containing an internal standard. In addition, two control groups of 500 μL each without NADPH were prepared in parallel as a negative control group.
(§2) Sample pre-treatment: To 50 μL of the incubated sample was added 300 μL of ice acetonitrile containing an internal standard, and then precipitated. After vortexing for 5 minutes, the sample was centrifugated (12000 rpm, 4° C.) for 10 minutes. 75 μL of the supernatant was pipetted, and 75 μL of ultrapure water was added thereto for dilution and mixed uniformly. […]

CYP2C19 = CYP2C19 (Homo sapiens (Human), UniProt P33261); test: CYP450 enzyme inhibition study, CYP2C19
Method: as §1, §2

CYP1A2 = CYP1A2 (Homo sapiens (Human), UniProt P05177); test: CYP450 enzyme inhibition study, CYP1A2
Method: as §1, §2

[1] = Plasma protein binding assay, mouse plasma
Method: (§3) Formulation of plasma sample: 495 μL of blank plasmas of the corresponding species (mouse, rat, dog, monkey, and human) were drawn respectively, and thereto was added 5 μL of the corresponding test compound solution or positive control to give plasma sample solutions having a plasma drug concentration of the compound of 1 μM, and 10 μM, respectively (formulated with acetonitrile).
(§4) The pre-treated dialysis membrane was placed in a high-throughput equilibrium dialysis device, and 100 μL of the plasma sample solution and PBS buffer solution were drawn and added respectively to both sides of the dialysis membrane (sample side and buffer side) (n=3). After the equilibration device was sealed with a film, it was incubated at 37° C. overnight (100 rpm). After dialysis equilibrium was reached, 50 μL samples were drawn from the sample side and the buffer side, respectively, and the reaction was terminated by adding ice acetonitrile containing an internal standard.
as §2, with “plasma-side” for “incubated”, “450” for “300”, “uniformly. 1 μL of the resulting solution was injected for analysis.” for “uniformly.”

[2] = Plasma protein binding assay, dog plasma
Method: as §3, §4
as §2, with “plasma-side” for “incubated”, “450” for “300”, “uniformly. 1 μL of the resulting solution was injected for analysis.” for “uniformly.”

[3] = Stability of liver microsomes in vitro, human
Method: 300 μL of a final incubation system contains 30 μL of liver microsomes (protein concentration: 0.15 mg/mL, Corning), 30 μL NADPH+MgCl2, 3 μL substrate (formulated with acetonitrile), and 237 μL PBS buffer. Duplicate incubation systems of 0.3 mL each were formulated for each species. A total volume of 270 μL of a uniformly mixed solution of the substrate and the enzyme was formulated in each tube, the solution and NADPH were pre-incubated at 37° C. for 5 minutes, respectively. Then 30 μL of the mixed solution of NADPH+MgCl2 was added for reaction. 50 μL of the reaction solution was taken out at 0, 10, 30, and 60 mins, and the reaction was terminated with 300 μL of ice acetonitrile containing an internal standard.
Sample pre-treatment: To 50 μL of the incubated sample was added 300 μL of ice acetonitrile containing diazepam as an internal standard and then precipitated. After vortexing for 5 minutes, the sample was centrifugated (12000 rpm, 4° C.) for 10 minutes. 75 μL of the supernatant was pipetted into a 96-well plate, and then diluted with 75 μL ultrapure water and mixed uniformly. 0.5 μL of the resulting solution was injected and analyzed by LC-MS/MS.

Chain of CYP1A2 (P05177 whole entry): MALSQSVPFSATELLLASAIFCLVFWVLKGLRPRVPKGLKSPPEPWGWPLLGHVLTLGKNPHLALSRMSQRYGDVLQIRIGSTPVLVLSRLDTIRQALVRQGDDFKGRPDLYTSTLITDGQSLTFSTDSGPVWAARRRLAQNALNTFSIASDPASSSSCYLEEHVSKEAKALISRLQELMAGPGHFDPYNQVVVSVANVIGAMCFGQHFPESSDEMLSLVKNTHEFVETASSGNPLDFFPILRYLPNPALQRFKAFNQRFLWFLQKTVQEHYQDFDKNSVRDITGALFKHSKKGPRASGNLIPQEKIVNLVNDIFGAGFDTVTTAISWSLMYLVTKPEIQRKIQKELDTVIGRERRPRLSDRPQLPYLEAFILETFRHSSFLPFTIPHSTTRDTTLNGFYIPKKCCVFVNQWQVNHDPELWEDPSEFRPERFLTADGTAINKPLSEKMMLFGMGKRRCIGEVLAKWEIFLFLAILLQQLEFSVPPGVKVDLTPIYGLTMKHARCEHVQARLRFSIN
Chain of CYP 2D6 (P10635 whole entry): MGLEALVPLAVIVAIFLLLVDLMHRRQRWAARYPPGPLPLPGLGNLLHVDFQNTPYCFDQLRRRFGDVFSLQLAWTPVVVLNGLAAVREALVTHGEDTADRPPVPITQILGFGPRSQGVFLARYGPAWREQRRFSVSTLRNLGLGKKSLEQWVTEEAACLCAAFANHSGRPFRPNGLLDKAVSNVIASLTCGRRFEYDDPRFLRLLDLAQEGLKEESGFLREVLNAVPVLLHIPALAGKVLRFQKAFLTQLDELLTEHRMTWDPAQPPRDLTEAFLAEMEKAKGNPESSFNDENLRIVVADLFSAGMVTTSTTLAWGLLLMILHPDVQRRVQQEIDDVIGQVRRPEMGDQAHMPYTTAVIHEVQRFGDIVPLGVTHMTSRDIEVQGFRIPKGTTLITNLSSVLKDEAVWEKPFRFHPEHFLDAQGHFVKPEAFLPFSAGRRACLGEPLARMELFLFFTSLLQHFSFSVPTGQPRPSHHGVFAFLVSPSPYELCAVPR
Chain of CYP2C19 (P33261 whole entry): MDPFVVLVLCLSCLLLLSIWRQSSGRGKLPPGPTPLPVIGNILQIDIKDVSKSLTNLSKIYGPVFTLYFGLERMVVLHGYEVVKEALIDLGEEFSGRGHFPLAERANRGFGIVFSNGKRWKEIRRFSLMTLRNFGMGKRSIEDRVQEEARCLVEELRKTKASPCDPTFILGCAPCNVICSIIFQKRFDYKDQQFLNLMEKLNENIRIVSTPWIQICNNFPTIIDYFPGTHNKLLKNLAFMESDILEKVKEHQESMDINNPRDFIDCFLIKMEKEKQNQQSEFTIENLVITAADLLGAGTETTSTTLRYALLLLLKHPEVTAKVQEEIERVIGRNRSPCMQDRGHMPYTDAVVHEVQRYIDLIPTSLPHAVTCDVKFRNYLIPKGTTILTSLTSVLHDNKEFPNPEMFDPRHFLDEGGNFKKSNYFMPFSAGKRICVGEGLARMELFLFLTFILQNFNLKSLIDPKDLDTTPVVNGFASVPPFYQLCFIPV

## Cc1[nH]c(C(=O)C(=O)N[C@@H](C)C(F)(F)F)c(C)c1C(=O)Nc1ccc(F)c(C#N)c1 [Example 1, (S)—N-(3-cyano-4-fluorophenyl)-2,4-dimethyl-5-(2-oxo-2-((1,1,1-trifluoroprop-2-yl)amino)acetyl)-1H-pyrrole-3-carboxamide]
CYP 2D6
  IC50: 54 µM
CYP2C19
  IC50: 20 µM
CYP1A2
  IC50: 49 µM
[1]; 1 μM
  Binding rate (%) Mouse: 85.4%
[1]; 10 μM
  Binding rate (%) Mouse: 85.5%
[2]; 1 μM
  Binding rate (%) Dog: 94.0%
[2]; 10 μM
  Binding rate (%) Dog: 93.9%
[3]
  Remaining (%) of human liver microsomes at 60 min: 99%
